Results taken from article PMC10202359, “Nicotinamide N-methyltransferase (NNMT) regulates the glucocorticoid signaling pathway during the early phase of adipogenesis” (Scientific Reports, 2023).
Blank lines part the entries; values can stand above or below the molecule they belong to.

Experiments:
[1] = test system: Nnmt expression in 3T3-L1 cells; assay: Nnmt mRNA by real-time PCR in 3T3-L1; assay type: cell-based, mouse; conditions: post-confluent 3T3-L1 treated 48 h with individual DIM components, vs unstimulated cells
Procedure: 3T3-L1 Mouse Embryonic Fibroblasts were purchased from American Type Culture Collection (ATCC CL-173). The cells were propagated and maintained in Dulbecco’s modified Eagle’s medium (DMEM, Gibco) supplemented with 10% calf serum (FCS) at 37 °C in 5% CO2 atmosphere. Subconfluents cells were expanded and utilized for the subsequent experiments at the passages 3–6. To induce differentiation, 2-day post-confluent 3T3-L1 pre-adipocytes were cultured for 48 h with DIM (DMEM supplemented with 10% fetal bovine serum (FBS), 1.0 µM Dexamethasone (G. Biosciences), […] Insulin (Sigma) and 0.5 mM IBMX (Sigma). Two days after induction the DIM medium was removed and the cells were maintained in DMED supplemented with 10% FBS and […] Insulin, which was replaced every 48 h, until the cells became fully differentiated (8–10 days after induction). C3H10T1/2 cells were purchased from American Type Culture Collection (ATCC, clone 8, CCL-226, were grown and induced to differentiate following the same protocol, with cell cultures < 3 passages. […] Real-time PCRs were performed using SYBR Green PCR Master Mix (Applied Biosystems) with an ABI PRISM 7900HT Sequence Detection System (Applied Biosystems). RT-PCR data were normalized to GAPDH and expressed relative to control (ddCt method).

NRMT1 = biological target: T1, NRMT1 (Homo sapiens, UniProt Q9BV86); assay: Methyltransferase Hot Spot radioisotope assay, NRMT1; assay type: biochemical; conditions: 10-dose, threefold dilution; CC-410 from 300 μM, control from 100 μM; substrate RCC1
T1 sequence (Q9BV86 1-223): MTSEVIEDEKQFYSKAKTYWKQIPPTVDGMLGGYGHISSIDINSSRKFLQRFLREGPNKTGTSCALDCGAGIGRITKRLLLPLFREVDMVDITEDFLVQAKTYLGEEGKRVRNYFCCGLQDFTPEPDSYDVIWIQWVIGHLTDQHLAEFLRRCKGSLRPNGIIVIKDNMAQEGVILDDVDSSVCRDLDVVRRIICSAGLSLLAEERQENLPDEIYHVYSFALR
Procedure: (§1) CC-410 was screened in biochemical assays for activity against a panel of 11 methyltransferases (MT) by using the radioisotope (3H-AdoMet) based MT Hot Spot Assay. All the assays were performed by Reaction Biology Corporation (RBC, Malven, PA, USA). Briefly CC-410 was incubated with the selected MTs, corresponding substrates, and radiolabeled SAM (S-Adenosyl-L-[methyl-3 H]methionine). The specific MTs assessed, and the corresponding substrates are as follows: DNMT1- Poly dl-dC, DNMT3a- Lambda DNA, DNMT3b- Lambda DNA, DOT1L- Nucleosomes, EZH2 Complex- Core Histone, METTL21A- HSPA8-[CTD], NRMT1- RCC1, PRMT3- Histone H4, PRMT5/MEP50- Histone H2A, SET1b -Core Histone Complex and SMYD2- Nucleosomes. Reaction mixtures were incubated and spotted onto filter papers, which were then washed to remove unreacted SAM, leaving the bound radiolabeled product. Detection of the radiolabeled, methylated product was performed via a nanoliter-scale radioisotope filter binding platform. […] For each assay, control compounds were included as positive controls for enzyme function and assay reproducibility. […] IC50 was calculated by non-linear least square fitting dose–response curve.

SET1b Complex = biological target: T2, SET1b Complex (Homo sapiens, UniProt Q9UPS6); assay: Methyltransferase Hot Spot radioisotope assay, SET1b Complex; assay type: biochemical; conditions: 10-dose, threefold dilution; CC-410 from 300 μM, control from 100 μM; substrate Core Histone; read-out: IC50* (M) SET1b Complex
T2 construct: purchased Reaction Biology Corporation
Procedure: as §1

DNMT3b = biological target: T3, DNMT3b (Homo sapiens, UniProt Q9UBC3); assay: Methyltransferase Hot Spot radioisotope assay, DNMT3b; assay type: biochemical
T3 construct: purchased Reaction Biology Corporation
Procedure: as §1

PRMT3 = PRMT3 (Homo sapiens, UniProt O60678); assay: Methyltransferase Hot Spot radioisotope assay, PRMT3; assay type: biochemical; conditions: 10-dose, threefold dilution; CC-410 from 300 μM, control from 100 μM; substrate Histone H4; read-out: IC50* (M) PRMT3
Sequence of PRMT3 (O60678 whole entry, species assumed): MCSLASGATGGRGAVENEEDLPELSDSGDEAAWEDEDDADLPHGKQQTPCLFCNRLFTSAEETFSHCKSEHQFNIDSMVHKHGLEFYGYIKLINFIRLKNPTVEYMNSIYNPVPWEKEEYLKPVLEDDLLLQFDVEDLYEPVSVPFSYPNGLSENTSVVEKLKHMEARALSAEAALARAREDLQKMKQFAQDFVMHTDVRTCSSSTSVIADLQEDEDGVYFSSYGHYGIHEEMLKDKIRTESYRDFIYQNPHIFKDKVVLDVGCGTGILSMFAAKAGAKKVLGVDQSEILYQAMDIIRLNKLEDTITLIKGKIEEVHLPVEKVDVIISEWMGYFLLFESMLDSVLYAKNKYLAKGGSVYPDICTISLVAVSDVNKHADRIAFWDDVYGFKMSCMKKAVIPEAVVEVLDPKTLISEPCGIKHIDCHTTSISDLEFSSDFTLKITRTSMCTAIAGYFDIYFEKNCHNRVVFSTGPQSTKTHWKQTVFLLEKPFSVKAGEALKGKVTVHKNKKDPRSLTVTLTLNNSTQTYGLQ
Procedure: as §1, with “The specific MTs assessed, and the corresponding substrates are as follows: DNMT1- Poly dl-dC, DNMT3a- Lambda DNA, DNMT3b- Lambda DNA, DOT1L- Nucleosomes, EZH2 Complex- Core Histone, METTL21A- HSPA8-[CTD], NRMT1- RCC1, PRMT3- Histone H4, PRMT5/MEP50- Histone H2A, SET1b -Core Histone Complex and SMYD2- Nucleosomes.” left out

DNMT3a = biological target: T4, DNMT3a (Homo sapiens, UniProt Q9Y6K1); assay: Methyltransferase Hot Spot radioisotope assay, DNMT3a; assay type: biochemical
T4 construct: purchased Reaction Biology Corporation
T4 sequence (Q9Y6K1 whole entry, looked up, species assumed): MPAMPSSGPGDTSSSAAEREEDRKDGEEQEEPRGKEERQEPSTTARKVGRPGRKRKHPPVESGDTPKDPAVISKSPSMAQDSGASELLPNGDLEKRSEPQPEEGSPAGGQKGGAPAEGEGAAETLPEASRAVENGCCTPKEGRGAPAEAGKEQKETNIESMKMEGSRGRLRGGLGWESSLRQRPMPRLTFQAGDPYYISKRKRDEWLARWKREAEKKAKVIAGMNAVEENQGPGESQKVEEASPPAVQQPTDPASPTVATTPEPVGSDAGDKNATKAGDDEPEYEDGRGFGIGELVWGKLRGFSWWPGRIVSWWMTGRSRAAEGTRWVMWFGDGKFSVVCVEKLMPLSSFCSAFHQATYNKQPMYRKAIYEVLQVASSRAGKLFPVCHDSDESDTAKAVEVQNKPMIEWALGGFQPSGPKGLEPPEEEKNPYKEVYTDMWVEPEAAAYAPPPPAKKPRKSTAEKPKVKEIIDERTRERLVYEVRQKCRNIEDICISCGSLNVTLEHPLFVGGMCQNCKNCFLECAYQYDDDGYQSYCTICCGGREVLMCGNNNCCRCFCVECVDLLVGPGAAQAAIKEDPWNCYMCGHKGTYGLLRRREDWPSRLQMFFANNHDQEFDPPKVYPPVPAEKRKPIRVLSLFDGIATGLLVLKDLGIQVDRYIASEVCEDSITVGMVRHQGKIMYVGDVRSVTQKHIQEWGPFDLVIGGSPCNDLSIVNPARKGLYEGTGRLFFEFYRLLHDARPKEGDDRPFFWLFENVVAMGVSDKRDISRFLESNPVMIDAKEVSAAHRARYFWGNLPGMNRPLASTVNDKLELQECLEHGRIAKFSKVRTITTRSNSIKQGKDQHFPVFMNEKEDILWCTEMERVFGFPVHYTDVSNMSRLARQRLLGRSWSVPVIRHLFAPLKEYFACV
Procedure: as §1

METTL21A = METTL21A (Homo sapiens, UniProt Q8WXB1); assay: Methyltransferase Hot Spot radioisotope assay, METTL21A; assay type: biochemical; conditions: 10-dose, threefold dilution; CC-410 from 300 μM, control from 100 μM; substrate HSPA8-[CTD]
Sequence of METTL21A (Q8WXB1 whole entry, species assumed): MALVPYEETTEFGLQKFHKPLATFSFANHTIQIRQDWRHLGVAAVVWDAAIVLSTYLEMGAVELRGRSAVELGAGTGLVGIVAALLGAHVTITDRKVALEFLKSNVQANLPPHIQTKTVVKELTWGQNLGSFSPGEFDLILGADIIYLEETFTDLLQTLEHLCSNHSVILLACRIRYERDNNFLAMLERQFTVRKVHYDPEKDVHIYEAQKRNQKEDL
Procedure: as §1, with “The specific MTs assessed, and the corresponding substrates are as follows: DNMT1- Poly dl-dC, DNMT3a- Lambda DNA, DNMT3b- Lambda DNA, DOT1L- Nucleosomes, EZH2 Complex- Core Histone, METTL21A- HSPA8-[CTD], NRMT1- RCC1, PRMT3- Histone H4, PRMT5/MEP50- Histone H2A, SET1b -Core Histone Complex and SMYD2- Nucleosomes.” left out

Molecule: C[C@@H]1C[C@H]2[C@@H]3CCC4=CC(=O)C=C[C@]4(C)[C@@]3(F)[C@@H](O)C[C@]2(C)[C@@]1(O)C(=O)CO [DEX, dexamethasone]
Nnmt expression (mRNA, RT-PCR) [1]: induction comparable with that of the whole cocktail

Molecule: CC(C)Cn1c(=O)n(C)c(=O)c2[nH]cnc21 [IBMX, 3-isobutyl-1-methylxanthine]
Nnmt expression (mRNA, RT-PCR) [1]: neither insulin nor IBMX impacted Nnmt expression significantly

IC50 (NRMT1): 1.68 µM
IC50 (SET1b Complex): 2e-05 M
IC50 (DNMT3b): 0.259 µM
IC50 (PRMT3): 3.88e-06 M
IC50 (DNMT3a): 0.511 µM
IC50 (METTL21A): 76.1 µM
Molecule: Nc1ncnc2c1ncn2[C@@H]1O[C@H](CSCC[C@H](N)C(=O)O)[C@@H](O)[C@H]1O [SAH, S-(5′-Adenosyl)-L-homocysteine, reference compound]

Molecule: insulin: component of the differentiation-inducing medium (DIM)
Nnmt expression (mRNA, RT-PCR) [1]: neither insulin nor IBMX impacted Nnmt expression significantly
